Laboratory results as given in patent US20260356834A1, “ANTICONVULSIVE COMPOUNDS AND USES THEREOF” (Jazz Pharmaceuticals Research UK Limite, priority 2023, published 2026).
Where “and” joins values, the source holds several entries; their conditions need not be identical. Equal values may be shown once. Marks after values point to notes of the source that are not given here.

What was measured:
RjOrl: Swiss mice [1] = test: mouse 6 Hz (44 mA) model of partial seizures; type: in vivo; conditions: 200 mg/kg i.p., 30 min
Text: The 6 Hz (44 mA) model of partial seizures, which detects anticonvulsant activity, follows that described by Brown et al. 1953.
[…] A decrease in forelimb clonus score is indicative of protection from seizure and an anticonvulsive effect.
When conducted at a 44 mA stimulus intensity in mice, the 6 Hz test can differentiate compounds with potential for the treatment of focal-onset seizures that are often resistant to current anti-epileptic drugs.
Male RjOrl: Swiss mice (Janvier Labs, 53940 Le Genest-Saint-Isle, France), 5 weeks old, weighing 27-38 g at the beginning of the experiment. Animals were acclimatized to the Test Facility for at least 5 days after delivery and randomly housed in groups of 5 to 8 in macrolon cages on wood litter with free access to food and water.
(§1) The animal house was maintained under artificial lighting (12 hours) between 7:00 and 19:00 in a controlled ambient temperature of 22±2 °C and relative humidity between 30-70%.
Before transcorneal stimulation, a drop of tetracaine solution (1%) was applied on each eye of the mouse for local anesthesia. Between 1-10 minutes later and at the designated pre-treatment (see below), the mice were administered a rectangular current (44 mA, rectangular pulse: 0.2 ms pulse width, 3 s duration, (6 Hz) via corneal electrodes connected to a constant current shock generator (Ugo Basile: type 7801).
The results for the number of seizures as reflected by forelimb clonus were recorded immediately after current administration. Forelimb clonus was scored as absent (0=no forelimb clonus), mild (1=clonus with one forelimb) and strong (2=clonus with both forelimbs). The experimenters were blinded to the treatment. […]
The administration volume was 10 mL/kg.
Due to the number of animals tested, the experiment was divided in 2 sub-experiments on 2 consecutive days with equivalent numbers of mice per group and per sub-experiment.
Data were discrete values so considered to be non-normally distributed based on validation data, therefore non-parametric tests were utilized. Quantitative data (scores) with the test substance were analyzed by comparing test compound-treated groups with the 1:2:17 vehicle control using Kruskal-Wallis test with Dunn's multiple comparisons test when the Kruskal-Wallis test was significant. Quantitative data with the reference substance were analyzed using Mann-Whitney U test as compared to saline vehicle.

DBA/2 mice [2] = conditions: De Sarro et al., 2017; cited from earlier work
RjOrl: Swiss mice [3] = test: mouse 6 Hz (44 mA) model of partial seizures; type: in vivo; conditions: 200 mg/kg i.p., 30 min; vs vehicle (HPMC)
C57BL/6J mice = test: mouse maximal electroshock seizure threshold model (MEST); type: in vivo; conditions: 150 mg/kg i.p., 30 min
Description: Vehicle=1:2:17 ethanol:Solutol® (Kolliphor® HS 15):saline: 1 mL of ethanol and 2 mL of solutol were warmed to 60 °C and 17 mL of 0.9% saline was added slowly. […]
Vehicle=0.5% HPMC and 0.1% Tween 80:0.5% HPMC and 0.1% Tween 80 in water.

DBA/2 mice [4] = test: mouse audiogenic seizure test; type: in vivo; conditions: 180 mg/kg i.p., 30 min
Text: The Audiogenic Seizure Test, which detects anticonvulsant activity, follows that described by Durmüller et al., 1993. Mice of the DBA/2 strain undergo an age-dependent sequence of convulsions (wild-running, clonic convulsion, tonic convulsion and respiratory arrest) within 60 seconds of exposure to a loud sound of 110-120 dB. The type of convulsions are consistent with aspects of generalised seizure in humans.
Male DBA/2 mice (3-4 weeks old) were supplied by Janvier Labs (53940 Le Genest-Saint-Isle, France); weight range 6-13 g at the beginning of the experiment. Animals were acclimatized to the Test Facility for 1 day after delivery and randomly housed in groups of 5 in macrolon cages on wood litter with free access to food and water.
as §1
Mice were individually transferred (at 3-5 minutes intervals) from the preparation room into an adjacent experimental room and body temperature was measured using a rectal thermometer (Digital Laboratory Thermometer: Model BAT-12). Immediately after, they were placed in a Plexiglas jar (Diameter=40 cm; Height=35 cm) mounted with an electric bell (110-120 dB, supplier Leroy Merlin, France). Upon activating the bell, the occurrences and latencies to wild running fits, clonic and tonic seizures were measured. Deaths were also recorded. The bell was activated until a tonic seizure occurred, or for a maximum of 60 seconds.
The experiment included groups of 10 mice per group. Experimenters were only partially blinded to treatment group as pre-treatment times were different.
The test substance was evaluated at various doses, administered i.p. (10 ml/kg) 15 or 30 minutes before the test, and compared with a vehicle control group.
Due to the number of animals tested, the experiment was divided in 2 sub-experiments on 2 separate days (7 days apart) with 5 mice per group in each sub-experiment.
Data were tested for normality using d'Agostino-Pearson Test and found to not follow a normal distribution. Statistical outliers were not identified or removed because no behavioural outliers were identified. Quantitative data (latencies) with the test substance were analyzed by comparing treated groups with vehicle control using Kruskal-Wallis test followed by Dunn's multiple comparisons test. Quantitative data with the reference substance were analyzed using Mann-Whitney U test. Quantal data (frequencies) were analyzed by comparing treated groups with vehicle control using Fisher's Exact Probability test.

CCCC(CCC)C(=O)[O-].[Na+] [Sodium Valproate, sodium valproate, reference compound]
Change from vehicle 1 (forelimb clonus) (RjOrl: Swiss mice [1]; vs vehicle 1 (saline)): −82%***
Change from vehicle 2 (forelimb clonus) (RjOrl: Swiss mice [1]; vs vehicle 2 (1:2:17 ethanol:Kolliphor HS15:saline)): −89%***
protection from clonic convulsions, tonic convulsions and respiratory arrest (DBA/2 mice [2]): protect DBA/2 mice from clonic convulsions, tonic convulsions and respiratory arrest
Change from vehicle (forelimb clonus) (RjOrl: Swiss mice [3]): −60%***
CC50 +/− SEM (C57BL/6J mice; 1:1:18 ethanol:Kolliphor EL:saline): 139.2 ± 2.1 mA
CC50 +/− SEM (C57BL/6J mice; 1:2:17 ethanol:Solutol:saline): 104.2 ± 1.0 mA
CC50 +/− SEM (C57BL/6J mice; study with HPMC vehicle): >300.0 mA and 215.8 ± 30.1 mA
Change from vehicle (CC50) (C57BL/6J mice; vs 1:1:18 ethanol:Kolliphor EL:saline vehicle): 457%^###
Change from vehicle (CC50) (C57BL/6J mice; vs 1:2:17 ethanol:Solutol:saline vehicle): 346%^###
Change from vehicle (CC50) (C57BL/6J mice; vs HPMC vehicle): >1043%*** and 714%***
Clonic convulsion - presence, % (DBA/2 mice [4]): 30%
Tonic convulsion - presence, % (DBA/2 mice [4]): 0%
Wild running - presence, % (DBA/2 mice [4]): 30%
latencies to clonic convulsions (significance in words) (DBA/2 mice [4]): significantly increased
latencies to tonic convulsions (significance in words) (DBA/2 mice [4]): significantly increased
latencies to wild running (significance in words) (DBA/2 mice [4]): significantly increased
number of mice displaying clonic convulsions (significance in words) (DBA/2 mice [4]): significantly decreased
number of mice displaying tonic convulsions (significance in words) (DBA/2 mice [4]): significantly decreased
number of mice displaying wild running (significance in words) (DBA/2 mice [4]): significantly decreased
Clonic convulsion - presence, Total (DBA/2 mice [4]; number of mice, n = 10): 1
Tonic convulsion - presence, Total (DBA/2 mice [4]; number of mice, n = 10): 0
Wild running - presence, Total (DBA/2 mice [4]; number of mice, n = 10): 1
